Laboratory results taken from paper PMC3355106, “Structural Basis for Specificity of Propeptide-Enzyme Interaction in Barley C1A Cysteine Peptidases” (PLoS ONE, 2012).
Peptide text beside a SMILES is read from it. * marks the point of attachment. AMC = Cc1cc(=O)oc2cc(N*)ccc12; Cbz = O=C(OCc1ccccc1)*

How the values were obtained:
Experiment in all cases: fluorescence of released AMC
Format in all cases: biochemical
Settings in all cases: pH 6.0, 30 °C, 10 mM L-cysteine, 10 mM EDTA, 0.01% Brij35
HvPap-6 = biological target: T1, HvPap-6 (Hordeum vulgare, UniProt B4ESE8)
T1 construct: gene pap-6; propeptide printed as A25-E131

HvPap-4 = biological target: T2, HvPap-4 (Hordeum vulgare, UniProt B4ESE6)
T2 construct: gene pap-4; propeptide printed as R25-D134

HvPap-16 = biological target: T3, HvPap-16 (Hordeum vulgare, UniProt B4ESF4)
T3 construct: gene pap-16; the propeptide cloning list prints HvPap-17 (A23-V156) instead of HvPap-16

BovCathB = biological target: T4, BovCathB (Bos taurus, UniProt P07688)
T4 construct: gene CTSB; commercial enzyme (Calbiochem)

T3 sequence (B4ESF4 entry or part of it): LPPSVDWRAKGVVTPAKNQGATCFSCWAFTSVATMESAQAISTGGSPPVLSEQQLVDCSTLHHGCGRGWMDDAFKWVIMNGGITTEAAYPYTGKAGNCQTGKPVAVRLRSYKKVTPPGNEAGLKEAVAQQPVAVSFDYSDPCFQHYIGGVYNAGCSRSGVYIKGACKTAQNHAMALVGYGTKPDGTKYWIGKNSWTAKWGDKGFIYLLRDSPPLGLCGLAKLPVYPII
T1 sequence (B4ESE8 entry or part of it): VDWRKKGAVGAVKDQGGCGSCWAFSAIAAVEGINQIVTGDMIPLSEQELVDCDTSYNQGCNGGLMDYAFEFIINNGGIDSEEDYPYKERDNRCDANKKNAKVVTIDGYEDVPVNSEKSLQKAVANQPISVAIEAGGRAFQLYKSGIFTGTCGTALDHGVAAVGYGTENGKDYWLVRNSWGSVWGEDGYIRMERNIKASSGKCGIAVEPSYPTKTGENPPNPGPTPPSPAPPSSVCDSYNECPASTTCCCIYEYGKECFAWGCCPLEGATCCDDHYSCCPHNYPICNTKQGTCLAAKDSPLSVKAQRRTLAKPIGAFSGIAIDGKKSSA
T2 sequence (B4ESE6 entry or part of it): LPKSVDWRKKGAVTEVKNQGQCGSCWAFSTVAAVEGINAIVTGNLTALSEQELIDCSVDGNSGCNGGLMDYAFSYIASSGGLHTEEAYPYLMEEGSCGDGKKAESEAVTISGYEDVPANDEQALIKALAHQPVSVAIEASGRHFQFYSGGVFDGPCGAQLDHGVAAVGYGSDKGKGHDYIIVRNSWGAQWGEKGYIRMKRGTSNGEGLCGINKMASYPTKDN

| SMILES | fluorescence of released AMC (HvPap-6) | fluorescence of released AMC (HvPap-4) | fluorescence of released AMC (HvPap-16) | fluorescence of released AMC (BovCathB) |
| --- | --- | --- | --- | --- |
| Cc1cc(=O)oc2cc(NC(=O)[C@H](CCCNC(=N)N)NC(=O)[C@H](Cc3ccccc3)NC(=O)OCc3ccccc3)ccc12 [Z-FR-AMC] (Cbz-Phe-Arg-{AMC}) | Z-FR-AMC (for cathepsin L) or Z-RR-AMC (for cathepsin B) fluorescent substrates were added | Z-FR-AMC (for cathepsin L) or Z-RR-AMC (for cathepsin B) fluorescent substrates were added | Z-FR-AMC (for cathepsin L) or Z-RR-AMC (for cathepsin B) fluorescent substrates were added | – |
| Cc1cc(=O)oc2cc(NC(=O)[C@H](CCCNC(=N)N)NC(=O)[C@H](CCCNC(=N)N)NC(=O)OCc3ccccc3)ccc12 [Z-RR-AMC] (Cbz-Arg-Arg-{AMC}) | – | – | – | Z-FR-AMC (for cathepsin L) or Z-RR-AMC (for cathepsin B) fluorescent substrates were added |
